# Assay results reported in US9663528B2, “Substituted 1,2,3,4,6,8,12,12a-octahydro-1,4-methanodipyrido[1,2-a:1',2'-d]pyrazines and methods for treating viral infections” (priority 2012, dated 2017).
# Like-named read-outs stand apart in the source and are kept apart here.
# Assays:
# PXR = PXR (Homo sapiens (Human), UniProt O75469); assay: Human PXR activation assay (luciferase reporter gene assay, DPX2 cells); type: cell-based; details: human
# Description: A stably transformed tumor cell line (DPX2) was plated on 96-well microtiter plates. DPX2 cells harbor the human PXR gene (NR112) and a luciferase reporter gene linked to two promoters identified in the human CYP3A4 gene, namely XREM and PXRE. […] The number of viable cells was determined and the reporter gene activity was assessed. Positive control: […]
# OCT2 = OCT2 (Homo sapiens (Human), UniProt O15244); assay: OCT2 inhibition assay (14C-TEA uptake, OCT2-transfected MDCKII cells); type: cell-based
# Description: On assay day, cells were trypsinized and resuspended in Krebs-Henseleit Buffer (KHB), pH 7.4 at […]. Cells were preincubated for 15 min in assay plate before addition of test compound or substrate. Test compounds were serially diluted in DMSO and then spiked (2 μL) into in 0.4 mL KHB buffer containing wild-type or OCT2-transfected cells and incubated for 10 minutes. Assay was initiated with the addition of 0.1 mL of 100 μM ^14C-TEA in KHB buffer (20 μM final concentration after mixing). The concentration of TEA is based on the Km. After 10 minutes of incubation, the assay mixture was quenched with addition of 0.5 mL of ice-cold 1×PBS buffer. Samples were then centrifuged at 1000 rpm for 5 min and supernatants were removed. Wash steps were repeated four times with ice-cold PBS. Finally, the cell pellets were lysed with 0.2N NaOH and let sit at room temperature for at least 30 min to ensure complete lysis. Samples were then counted on liquid scintillation counter and dpm counts were used to perform the following calculations.
# in vitro = details: human
# [1] = Pharmacokinetic analysis following intravenous administration to beagle dogs; type: in vivo; details: male, dog, 0.5 mg/kg; for MRT / clearance: beagle, in vivo, iv; for Vd: plasma, beagle dogs, IV infusion over 30 min, read-out: Vss
# Description: Pharmacokinetic analysis was performed on various test compounds following intravenous or oral administration to beagle dogs.
# For pharmacokinetic analysis of intravenously administered compounds, the test compounds were formulated in 5% Ethanol, 55% PEG 300, and 40% water at 0.1 mg/mL for IV infusion. For pharmacokinetic analysis of orally administered compounds, the test compounds were formulated as an aqueous suspension in 0.1% Tween 20, 0.5% HPMC LV 100 in Di Water at 1 mg/kg.
# Each dosing group consisted of 3 male, non-naïve purebred beagle dogs. At dosing, the animals weighed between 10 to 13 kg. The animals were fasted overnight prior to dose administration and up to 4 hr after dosing. For studies of intravenous administration, the test article was administered to the animals by intravenous infusion over 30 min. The rate of infusion was adjusted according to the body weight of each animal to deliver a dose of 0.5 mg/kg. For studies of oral administration, the test article was administered according to the body weight of each animal to deliver a dose of 1 mg/kg.
# For pharmacokinetic analysis of intravenously administered compounds, serial venous blood samples (approximately 1 mL each) were taken from each animal at 0, 0.250, 0.483, 0.583, 0.750, 1.00, 1.50, 2.00, 4.00, 8.00, 12.0, and 24.0 hours after dosing. The blood samples were collected into Vacutainer™ tubes containing EDTA-K2 as the anti-coagulant and were immediately placed on wet ice pending centrifugation for plasma. An LC/MS/MS method was used to measure the concentration of the test compound in plasma. An aliquot of 100 μL of each plasma sample was added to a clean 96 well plate, and 400 μL of cold acetonitrile/internal standard solution (ACN)/(ISTD) was added. After protein precipitation, an aliquot of 110 μL of the supernatant was transferred to a clean 96-well plate and diluted with 300 μL of water. An aliquot of 25 μL of the above solution was injected into a TSQ Quantum Ultra LC/MS/MS system utilizing a Hypersil Gold C18 HPLC column (50×3.0 mm, 5 μm; Thermo-Hypersil Part #25105-053030). An Agilent 1200 series binary pump (P/N G1312A Bin Pump) was used for elution and separation, and an HTS Pal autosampler (LEAP Technologies, Carrboro, N.C.) was used for sample injection. A TSQ Quantum Ultra triple quadrupole mass spectrometer was utilized in selective reaction monitoring mode (Thermo Finnigan, San Jose, Calif.). Liquid chromatography was performed using two mobile phases: mobile phase A contained 1% acetonitrile in 2.5 mM ammonium formate aqueous solution with pH of 3.0, and mobile phase B contained 90% acetonitrile in 10 mM ammonium formate with pH of 4.6. Non-compartmental pharmacokinetic analysis was performed on the plasma concentration-time data. The resulting data are shown in the first three columns of Table 4. In Table 4, CL refers to clearance, which characterizes the rate at which drug is removed from plasma. The lower the clearance of a drug is, the longer the elimination half-life is in the body. Vss refers to the steady state volume of distribution and indicates how well a drug is distributed into the tissues. The larger the Vss is, the longer the elimination half-life is in the body. MRT refers to mean residence time, which is a measure of the average time molecules exist in the body.
# [2] = 15 μM, relative to maximum fold induction by 10 or 20 μM rifampicin, DPX2 cells, 24 hours, read-out: % Emax at 15 μM
# [3] = OCT2 mediated uptake of 14C-TEA (20 μM), MDCKII cells, read-out: IC50
# Sequence of PXR (O75469 whole entry): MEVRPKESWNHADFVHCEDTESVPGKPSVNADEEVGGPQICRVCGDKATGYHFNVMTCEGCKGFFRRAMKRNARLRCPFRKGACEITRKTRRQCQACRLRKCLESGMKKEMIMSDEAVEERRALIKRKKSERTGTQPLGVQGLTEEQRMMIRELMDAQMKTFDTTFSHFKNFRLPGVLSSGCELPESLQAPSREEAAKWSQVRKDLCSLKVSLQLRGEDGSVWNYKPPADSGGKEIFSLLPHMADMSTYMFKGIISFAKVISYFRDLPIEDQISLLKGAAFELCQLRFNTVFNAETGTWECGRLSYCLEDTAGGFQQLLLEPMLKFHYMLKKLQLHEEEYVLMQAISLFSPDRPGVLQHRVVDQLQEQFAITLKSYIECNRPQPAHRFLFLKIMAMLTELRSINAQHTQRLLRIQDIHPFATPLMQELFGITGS
# Sequence of OCT2 (O15244 whole entry): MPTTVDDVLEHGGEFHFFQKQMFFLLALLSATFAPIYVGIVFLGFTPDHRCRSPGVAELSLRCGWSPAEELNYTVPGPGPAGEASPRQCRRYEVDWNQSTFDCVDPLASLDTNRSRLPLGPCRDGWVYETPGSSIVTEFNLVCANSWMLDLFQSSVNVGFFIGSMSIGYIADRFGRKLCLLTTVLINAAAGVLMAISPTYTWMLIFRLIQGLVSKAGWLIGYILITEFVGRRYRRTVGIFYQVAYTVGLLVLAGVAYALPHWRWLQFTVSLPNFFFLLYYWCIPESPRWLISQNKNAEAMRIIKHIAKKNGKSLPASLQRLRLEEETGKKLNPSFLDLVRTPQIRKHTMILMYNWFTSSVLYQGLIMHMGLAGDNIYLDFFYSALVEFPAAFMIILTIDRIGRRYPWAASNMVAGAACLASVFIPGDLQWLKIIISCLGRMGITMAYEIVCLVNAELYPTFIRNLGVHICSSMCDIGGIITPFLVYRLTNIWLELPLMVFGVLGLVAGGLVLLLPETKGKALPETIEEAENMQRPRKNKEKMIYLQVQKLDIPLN
SMILES,IC50 (OCT2) [µM],CC50 at 5 days (in vitro; CC50 nM in MT-4) [nM],"Emax at 24 h, 15 µM (PXR) [%]",other results
"CC1CC2CC1OC1Cn3cc(C(=O)NCc4ccc(F)cc4F)c(=O)c(O)c3C(=O)N21 (single isomer, unassigned) [Compound 40]",0.204,9560,–,"Emax at 24 h, 15 µM (PXR; [2]): 0%"
"O=C(NCc1ccc(F)cc1Cl)c1cn2c(c(O)c1=O)C(=O)N1[C@H]3CC[C@H](C3)O[C@@H]1C2 [Compound 63, (2R,5S,13aR)-N-(2-chloro-4-fluorobenzyl)-8-hydroxy-7,9-dioxo-2,3,4,5,7,9,13,13a-octahydro-2,5-methanopyrido[1′,2′:4,5]pyrazino[2,1-b][,3]oxazepine-10-carboxamide]",–,3160,–,"Emax at 24 h, 15 µM (PXR; [2]): 13%; IC50 (OCT2; [3]): 0.042 µM"
"O=C(NCc1ccc(F)cc1F)c1cn2c(c(O)c1=O)C(=O)N1[C@H]3CC[C@H](CC3)[C@H]1C2 [Compound 100, (1R,4R,12aS)-N-(2,4-difluorobenzyl)-7-hydroxy-6,8-dioxo-1,2,3,4,6,8,12,12a-octahydro-1,4-ethanodipyrido[1,2-a:1′,2′-d]pyrazine-9-carboxamide]",–,–,–,"Emax at 24 h, 15 µM (PXR; [2]): 45%; IC50 (OCT2; [3]): 0.45 µM; CC50 at 5 days (in vitro; MT-4 cells, mock-infected, CC50 nM in MT-4, MT-4 cells, 5 days incubation): 11600 nM"
"C[C@H]1C[C@@H]2C[C@H]1N1C(=O)c3c(O)c(=O)c(C(=O)NCc4c(F)cc(F)cc4F)cn3C[C@@H]21 [Compound 99, (1R,3S,4R,12aR)-7-hydroxy-3-methyl-6,8-dioxo-N-(2,4,6-trifluorobenzyl)-1,2,3,4,6,8,12,12a-octahydro-1,4-methanodipyrido[1,2-a:1′,2′-d]pyrazine-9-carboxamide]",1.51,8480,17,–
"O=C(N[C@@H](c1ccc(F)cc1F)C(F)(F)F)c1cn2c(c(O)c1=O)C(=O)N1C(C2)O[C@H]2CC[C@@H]1C2 (stereo partly drawn) [Compound 36, (2S,5R)-N—((S)-1-(2,4-difluorophenyl)-2,2,2-trifluoroethyl)-8-hydroxy-7,9-dioxo-2,3,4,5,7,9,13,13a-octahydro-2,5-methanopyrido[1′,2′:4,5]pyrazino[2,1-b][1,3]oxazepine-10-carboxamide]",10,11400,3,–
"O=C(NCc1ccc(F)cc1F)c1cn2c(c(O)c1=O)C(=O)N1C(C2)O[C@H]2CCC[C@@H]1C2 (stereo partly drawn) [Compound 7, (2S,6R)-N-(2,4-difluorobenzyl)-9-hydroxy-8,10-dioxo-3,4,5,6,8,10,14,14a-octahydro-2H-2,6-methanopyrido[1′,2′:4,5]pyrazino[2,1-b][1,3]oxazocine-11-carboxamide]",–,15600,6,MRT [1]: 2.3 h; clearance [1]: 8.5 mL/min/kg; Vd [1]: 1.2 L/kg
"C[C@@H](NC(=O)c1cn2c(c(O)c1=O)C(=O)N1[C@@H]3CC[C@@H](C3)O[C@H]1C2)c1ccc(F)cc1F [Compound 11, (2S,5R,13aS)-N—((R)-1-(2,4-difluorophenyl)ethyl)-8-hydroxy-7,9-dioxo-2,3,4,5,7,9,13,13a-octahydro-2,5-methanopyrido[1′,2′:4,5]pyrazino[2,1-b][1,3]oxazepine-10-carboxamide]",10,10300,–,–
"O=C(NC1(c2ccc(F)cc2F)CCC1)c1cn2c(c(O)c1=O)C(=O)N1C(C2)O[C@H]2CC[C@@H]1C2 (stereo partly drawn) [Compound 32, (2S,5R)-N-(1-(2,4-difluorophenyl)cyclobutyl)-8-hydroxy-7,9-dioxo-2,3,4,5,7,9,13,13a-octahydro-2,5-methanopyrido[1′,2′:4,5]pyrazino[2,1-b][1,3]oxazepine-10-carboxamide]",–,4680,14,–
"O=C(NCc1c(F)cc(F)cc1F)c1cn2c(c(O)c1=O)C(=O)N1[C@H]3CC(F)C(C3)[C@@H]1C2 (stereo in doubt) [Compound 56, (1R,2S,4R,12aR)-2-fluoro-7-hydroxy-6,8-dioxo-N-(2,4,6-trifluorobenzyl)-1,2,3,4,6,8,12,12a-octahydro-1,4-methanodipyrido[1,2-a:1′,2′-d]pyrazine-9-carboxamide]",–,17200,3,–
"O=C(NCc1ccc(F)cc1F)c1cn2c(c(O)c1=O)C(=O)N1C(C2)O[C@@H]2CCC[C@H]1C2 (stereo partly drawn) [Compound 8, (2R,6S)-N-(2,4-difluorobenzyl)-9-hydroxy-8,10-dioxo-3,4,5,6,8,10,14,14a-octahydro-2H-2,6-methanopyrido[1′,2′:4,5]pyrazino[2,1-b][1,3]oxazocine-11-carboxamide]",–,13900,7,MRT [1]: 1.8 h; clearance [1]: 8.3 mL/min/kg; Vd [1]: 0.87 L/kg
"O=C(NCc1c(F)cc(F)cc1F)c1cn2c(c(O)c1=O)C(=O)N1[C@H](C2)[C@H]2C[C@H](F)[C@@H]1C2 [Compound 81, (1R,3S,4S,12aS)-3-fluoro-7-hydroxy-6,8-dioxo-N-(2,4,6-trifluorobenzyl)-1,2,3,4,6,8,12,12a-octahydro-1,4-methanodipyrido[1,2-a:1′,2′-d]pyrazine-9-carboxamide]",–,12300,1,–
"O=C(NCc1c(F)cc(F)cc1F)c1cn2c(c(O)c1=O)C(=O)N1[C@@H]3C[C@H]([C@@H]1C2)C(F)(F)C3 [Compound 57, (1R,4R,12aR)-2,2-difluoro-7-hydroxy-6,8-dioxo-N-(2,4,6-trifluorobenzyl)-1,2,3,4,6,8,12,12a-octahydro-1,4-methanodipyrido[1,2-a:1′,2′-d]pyrazine-9-carboxamide]",–,11800,3,–
"O=C(NCc1cc(F)ccc1F)c1cn2c(c(O)c1=O)C(=O)N1[C@H]3CC[C@H](C3)O[C@@H]1C2 [Compound 89, (2R,5S,13aR)-N-(2,5-difluorobenzyl)-8-hydroxy-7,9-dioxo-2,3,4,5,7,9,13,13a-octahydro-2,5-methanopyrido[1′,2′:4,5]pyrazino[2,1-b][1,3]oxazepine-10-carboxamide]",–,4630,5,–
"C[C@H](NC(=O)c1cn2c(c(O)c1=O)C(=O)N1[C@@H]3CC[C@@H](C3)O[C@H]1C2)c1ccc(F)cc1F [Compound 13, (2S,5R,13aS)-N—((S)-1-(2,4-difluorophenyl)ethyl)-8-hydroxy-7,9-dioxo-2,3,4,5,7,9,13,13a-octahydro-2,5-methanopyrido[1′,2′:4,5]pyrazino[2,1-b][1,3]oxazepine-10-carboxamide]",0.61,12700,–,–
"O=C(NCc1c(Cl)ccc(Cl)c1F)c1cn2c(c(O)c1=O)C(=O)N1[C@H]3CC[C@H](C3)[C@@H]1C2 [Compound 71, (1R,4S,12aR)-N-(3,6-dichloro-2-fluorobenzyl)-7-hydroxy-6,8-dioxo-1,2,3,4,6,8, 12,12a-octahydro-1,4-methanodipyrido[1,2-a:1′,2′-d]pyrazine-9-carboxamide]",–,4660,3,–
